Experimental data: patent US20230391760A1, “HETEROCYCLIC GLP-1 AGONISTS” (Gasherbrum Bio, Inc., priority 2020, published 2023)

These compounds were tested against GLP-1 Receptor (Homo sapiens, UniProt P43220) (assay: GLP-1R agonist cAMP stimulation assay (HEK293/GLP1R/CRE-LUC cells, cAMP dynamic 2 Kit)). Conditions: HEK293/CRE-Luc cell line stably expressing the GLP-1 Receptor, 30 min at 37° C.
Chain of GLP-1 Receptor (P43220 24-463, species assumed): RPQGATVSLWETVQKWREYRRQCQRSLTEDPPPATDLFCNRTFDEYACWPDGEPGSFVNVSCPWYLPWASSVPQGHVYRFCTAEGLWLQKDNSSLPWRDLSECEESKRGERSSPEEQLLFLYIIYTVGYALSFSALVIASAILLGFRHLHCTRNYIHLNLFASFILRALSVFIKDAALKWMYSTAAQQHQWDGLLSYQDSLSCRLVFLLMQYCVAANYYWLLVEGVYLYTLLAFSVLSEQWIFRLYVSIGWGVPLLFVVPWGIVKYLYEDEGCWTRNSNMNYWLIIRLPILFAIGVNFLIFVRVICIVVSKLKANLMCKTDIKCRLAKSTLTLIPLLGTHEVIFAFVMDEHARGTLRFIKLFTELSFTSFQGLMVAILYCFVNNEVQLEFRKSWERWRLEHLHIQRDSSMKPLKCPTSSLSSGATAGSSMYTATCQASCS
Type: cell-based
How it was run: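 cAMP measured by HTRF competition (d2-labelled cAMP with cryptate antibody, 1 h, room temperature, protected from light). Before that, GLP1R/CRE-Luc HEK293 cells (1000/well) were exposed for 30 min at 37 °C to half-log compound dilutions in DPBS containing IBMX 0.5 mM and BSA 0.1%.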
`O=C(Nc1ccc2c(c1)nc(CN1CCC(c3cccc(OCc4ccc(Cl)cc4F)n3)CC1)n2C[C@@H]1CCO1)C1CCCC1` [Compound 151a, N-{2-[(4-{6-[(4-chloro-2-fluorophenyl)methoxy]pyridin-2-yl}piperidin-1-yl)methyl]-1-{[(2S)-oxetan-2-yl]methyl}-1H-1,3-benzodiazol-5-yl}cyclopentanecarboxamide] was tested, and the EC50 was 0.8 nM.
With `Fc1cc(C(F)(F)F)ccc1COc1cccc(C2CCN(Cc3nc4cc(-c5nnc(C(F)(F)F)[nH]5)ncc4n3C[C@@H]3CCO3)CC2)n1` [Compound 497a, 2-{[2-fluoro-4-(trifluoromethyl)phenyl]methoxy}-6-{1-[(3-{[(2S)-oxetan-2-yl]methyl}-6-[5-(trifluoromethyl)-4H-1,2,4-triazol-3-yl]-3H-imidazo[4,5-c]pyridin-2-yl)methyl]piperidin-4-yl}pyridine] the EC50 was 0.034 nM.
Work on `O=C(Nc1ccc2c(c1)nc(CN1CCC(c3cccc(OCc4ccc(Cl)cc4F)n3)CC1)n2C[C@@H]1CCO1)C1CC(F)(F)C1` [Compound 152a, N-{2-[(4-{6-[(4-chloro-2-fluorophenyl)methoxy]pyridin-2-yl}piperidin-1-yl)methyl]-1-{[(2S)-oxetan-2-yl]methyl}-1H-1,3-benzodiazol-5-yl}-3,3-difluorocyclobutane-1-carboxamide] yielded an EC50 of 0.88 nM.
Compound `CC1(c2ccc(Cl)cc2F)Oc2cccc(C3CCN(Cc4nc5cc(-c6cn(CCC(=O)O)nn6)ccc5n4C[C@@H]4CCO4)CC3)c2O1` (stereo partly drawn) [Compound 251a, 3-{4-[2-({4-[2-(4-chloro-2-fluorophenyl)-2-methyl-2H-1,3-benzodioxol-4-yl]piperidin-1-yl}methyl)-1-{[(2S)-oxetan-2-yl]methyl}-1H-1,3-benzodiazol-5-yl]-1H-1,2,3-triazol-1-yl}propanoic acid] has an EC50 of 0.11 nM.
`O=C(Cc1ccccc1)Nc1ccc2c(c1)nc(CN1CCC(c3cccc(OCc4ccc(Cl)cc4F)n3)CC1)n2C[C@@H]1CCO1` [Compound 130a, N-{2-[(4-{6-[(4-chloro-2-fluorophenyl)methoxy]pyridin-2-yl}piperidin-1-yl)methyl]-1-{[(2S)-oxetan-2-yl]methyl}-1H-1,3-benzodiazol-5-yl}-2-phenylacetamide] showed an EC50 of 5.1 nM.
`Fc1cc(Cl)ccc1C1COc2cccc(C3CCN(Cc4nc5cc(-c6nnc(C(F)(F)F)[nH]6)nnc5n4C[C@@H]4CCO4)CC3)c2O1` (stereo partly drawn) [Compound 465a, 4-[3-(4-chloro-2-fluorophenyl)-2,3-dihydro-1,4-benzodioxin-5-yl]-1-[(7-{[(2S)-oxetan-2-yl]methyl}-3-[5-(trifluoromethyl)-4H-1,2,4-triazol-3-yl]-7H-imidazo[4,5-c]pyridazin-6-yl)methyl]piperidine] was tested, and the EC50 was 0.3 nM.
Work on `CC1(C(=O)Nc2ccc3c(c2)nc(CN2CCC(c4cccc(OCc5ccc(Cl)cc5F)n4)CC2)n3C[C@@H]2CCO2)CCCCO1` (stereo partly drawn) [Compound 183a, N-{2-[(4-{6-[(4-chloro-2-fluorophenyl)methoxy]pyridin-2-yl}piperidin-1-yl)methyl]-1-{[(2S)-oxetan-2-yl]methyl}-1H-1,3-benzodiazol-5-yl}-2-methyloxane-2-carboxamide] yielded an EC50 of 4 nM.
In the case of `CC1(c2ccc(Cl)cc2F)Oc2cccc(C3CCN(Cc4nc5cc(-c6nnc(C(F)(F)F)[nH]6)cnc5n4CC4(C#N)CC4)CC3)c2O1` (centres unmarked) [Compound 254a, 1-{[2-({4-[2-(4-chloro-2-fluorophenyl)-2-methyl-2H-1,3-benzodioxol-4-yl]piperidin-1-yl}methyl)-6-[5-(trifluoromethyl)-4H-1,2,4-triazol-3-yl]-3H-imidazo[4,5-b]pyridin-3-yl]methyl}cyclopropane-1-carbonitrile], the EC50 is reported as 0.069 nM.
`N#Cc1ccc(COc2cccc(C3CCN(Cc4nc5cc(-c6nnc(C(F)(F)F)[nH]6)nnc5n4C[C@@H]4CCO4)CC3)n2)c(F)c1` [Compound 487a, 3-fluoro-4-{[(6-{1-[(7-{[(2S)-oxetan-2-yl]methyl}-3-[5-(trifluoromethyl)-4H-1,2,4-triazol-3-yl]-7H-imidazo[4,5-c]pyridazin-6-yl)methyl]piperidin-4-yl}pyridin-2-yl)oxy]methyl}benzonitrile] showed an EC50 of 0.029 nM.
In the case of `Cc1cnc(-c2ccc3c(c2)nc(CN2CCC(c4cccc5c4O[C@@](C)(c4ccc(Cl)cc4F)O5)CC2)n3C[C@@H]2CCO2)nc1` [Compound 236a, 2-((4-((S)-2-(4-chloro-2-fluorophenyl)-2-methylbenzo[d][1,3]dioxol-4-yl)piperidin-1-yl)methyl)-5-(5-methylpyrimidin-2-yl)-1-(((S)-oxetan-2-yl)methyl)-1H-benzo[d]imidazole], the EC50 is reported as 2 nM.
Work on `Cn1nc(-c2ccc3c(c2)nc(CN2CCC(c4cccc5c4OC(C)(c4ccc(Cl)cc4F)O5)CC2)n3C[C@@H]2CCO2)oc1=O` (stereo partly drawn) [Compound 220a, 5-[2-({4-[2-(4-chloro-2-fluorophenyl)-2-methyl-2H-1,3-benzodioxol-4-yl]piperidin-1-yl}methyl)-1-{[(2S)-oxetan-2-yl]methyl}-1H-1,3-benzodiazol-5-yl]-3-methyl-2,3-dihydro-1,3,4-oxadiazol-2-one] yielded an EC50 of 2.8 nM.
`CC1(c2ccc(Cl)cc2F)Oc2cccc(C3CCN(Cc4nc5cc(-c6nc(Br)ns6)ccc5n4C[C@@H]4CCO4)CC3)c2O1` (stereo partly drawn) [Compound 409a, 5-(3-bromo-1,2,4-thiadiazol-5-yl)-2-({4-[2-(4-chloro-2-fluorophenyl)-2-methyl-2H-1,3-benzodioxol-4-yl]piperidin-1-yl}methyl)-1-{[(2S)-oxetan-2-yl]methyl}-1H-1,3-benzodiazole] gave an EC50 of 6.5 nM.
`Fc1cc(C2CC2)ccc1COc1cccc(C2CCN(Cc3nc4cc(-c5nnc(C(F)(F)F)[nH]5)ncc4n3C[C@@H]3CCO3)CC2)n1` [Compound 498a, 2-[(4-cyclopropyl-2-fluorophenyl)methoxy]-6-{1-[(3-{[(2S)-oxetan-2-yl]methyl}-6-[5-(trifluoromethyl)-4H-1,2,4-triazol-3-yl]-3H-imidazo[4,5-c]pyridin-2-yl)methyl]piperidin-4-yl}pyridine] gave an EC50 of 0.099 nM.
For `CO[C@H](C)Cn1c(CN2CCC(c3cccc4c3O[C@@](C)(c3ccc(Cl)cc3F)O4)CC2)nc2cc(-c3noc(=O)[nH]3)ncc21` [Compound 419a, 3-[2-({4-[(2S)-2-(4-chloro-2-fluorophenyl)-2-methyl-2H-1,3-benzodioxol-4-yl]piperidin-1-yl}methyl)-3-[(2R)-2-methoxypropyl]-3H-imidazo[4,5-c]pyridin-6-yl]-4,5-dihydro-1,2,4-oxadiazol-5-one], the EC50 was 0.072 nM.
`C[C@]1(c2ccc(Cl)cc2F)Oc2cccc(C3CCN(Cc4nc5cc(-c6nnc(C(F)(F)F)[nH]6)nnc5n4C[C@H]4CCOC4)CC3)c2O1` [Compound 475a, 4-[(2S)-2-(4-chloro-2-fluorophenyl)-2-methyl-2H-1,3-benzodioxol-4-yl]-1-[(7-{[(3R)-oxolan-3-yl]methyl}-3-[5-(trifluoromethyl)-4H-1,2,4-triazol-3-yl]-7H-imidazo[4,5-c]pyridazin-6-yl)methyl]piperidine] showed an EC50 of 0.41 nM.
Work on `O=C(Nc1ccc2c(c1)nc(CN1CCC(c3cccc(OCc4ccc(Cl)cc4F)n3)CC1)n2C[C@@H]1CCO1)c1cncnc1` [Compound 200a, N-{2-[(4-{6-[(4-chloro-2-fluorophenyl)methoxy]pyridin-2-yl}piperidin-1-yl)methyl]-1-{[(2S)-oxetan-2-yl]methyl}-1H-1,3-benzodiazol-5-yl}pyrimidine-5-carboxamide] yielded an EC50 of 0.35 nM.
Compound `O=C(O)Cc1ccc2c(c1)nc(CN1CCC(c3cccc(OCc4ccc(Cl)cc4F)n3)CC1)n2C[C@@H]1CCO1` [Compound 110a, (S)-2-(2-((4-(6-((4-chloro-2-fluorobenzyl)oxy)pyridin-2-yl)piperidin-1-yl)methyl)-1-(oxetan-2-ylmethyl)-1H-benzo[d]imidazol-5-yl)acetic acid] has an EC50 of 15.9 nM.
With `O=C(O)COc1ccc2c(c1)nc(CN1CCC(c3cccc(OCc4ccc(Cl)cc4F)n3)CC1)n2C[C@@H]1CCO1` [Compound 109a, (S)-2-((2-((4-(6-((4-chloro-2-fluorobenzyl)oxy)pyridin-2-yl)piperidin-1-yl)methyl)-1-(oxetan-2-ylmethyl)-1H-benzo[d]imidazol-5-yl)oxy)acetic acid] the EC50 was 13.2 nM.
`C[C@]1(c2ccc(C#N)cc2F)Oc2cccc(C3CCN(Cc4nc5cc(-c6nnc(C(F)(F)F)[nH]6)nnc5n4C[C@@H]4CCO4)CC3)c2O1` [Compound 447a, 3-fluoro-4-[(2S)-2-methyl-4-{1-[(7-{[(2S)-oxetan-2-yl]methyl}-3-[5-(trifluoromethyl)-4H-1,2,4-triazol-3-yl]-7H-imidazo[4,5-c]pyridazin-6-yl)methyl]piperidin-4-yl}-2H-1,3-benzodioxol-2-yl]benzonitrile] showed an EC50 of 0.019 nM.
In the case of `C[C@]1(c2ccc(Cl)cn2)Oc2cccc(C3CCN(Cc4nc5cc(-c6n[nH]c(C(F)(F)F)n6)cnc5n4C[C@@H]4CCO4)CC3)c2O1` (single isomer, unassigned) [Compound 333c], the EC50 is reported as 0.95 nM.
`CC1(c2ccc(Cl)cc2F)Oc2cccc(C3CCN(Cc4nc5cc(C(=O)O)ccc5n4C[C@@H]4CCO4)CC3)c2O1` (stereo partly drawn) [Compound 161a, 2-((4-(2-(4-chloro-2-fluorophenyl)-2-methylbenzo[d][1,3]dioxol-4-yl)piperidin-1-yl)methyl)-1-(((S)-oxetan-2-yl)methyl)-1H-benzo[d]imidazole-5-carboxylic acid] gave an EC50 of 0.51 nM.
Work on `C[C@H]1CN(c2cccc(OCc3ccc(Cl)cc3F)n2)CCN1Cc1nc2cc(-c3nnc(C(F)(F)F)[nH]3)nnc2n1C[C@@H]1CCO1` [Compound 519a, (2S)-4-{6-[(4-chloro-2-fluorophenyl)methoxy]pyridin-2-yl}-2-methyl-1-[(7-{[(2S)-oxetan-2-yl]methyl}-3-[5-(trifluoromethyl)-4H-1,2,4-triazol-3-yl]-7H-imidazo[4,5-c]pyridazin-6-yl)methyl]piperazine] yielded an EC50 of 0.04 nM.
Work on `Fc1cc(Cl)ccc1COc1nc(N2CCN(Cc3nc4cc(-c5nnc(C(F)(F)F)[nH]5)cnc4n3C[C@@H]3CCO3)CC2)ccc1F` [Compound 516a, 1-{6-[(4-chloro-2-fluorophenyl)methoxy]-5-fluoropyridin-2-yl}-4-[(3-{[(2S)-oxetan-2-yl]methyl}-6-[5-(trifluoromethyl)-4H-1,2,4-triazol-3-yl]-3H-imidazo[4,5-b]pyridin-2-yl)methyl]piperazine] yielded an EC50 of 0.018 nM.
